We go through 13 compounds from patent US20260022142A1, “MACROCYCLIC IMMUNOMODULATORS” (Bristol-Myers Squibb Company, priority 2022, published 2026).

Numbered stars: 1 amine (or outer) side, 2 acyl side, 3 side chain; on linkers, the order of the positions; unused ones are H or OH. Bridge positions count the residues as written; N and C are the ends. Square brackets hold non-standard residues; d marks the D form. Peptide text beside a SMILES is read from it. * marks the point of attachment. Bip = N[C@@H](Cc1ccc(-c2ccccc2)cc1)C(=O)O; X14 = N[C@H](CN*)C(=O)NCCCCCCCCCCC(=O)O; Phe(3-Me) = Cc1cccc(C[C@H](N)C(=O)O)c1; X16 = O=C(C1CCC(CN[*:1])CC1)[*:2]; X6 = O=C(Cc1ccc(CN[*:1])cc1)[*:2]; hhGln = NC(=O)CCCC[C@H](N)C(=O)O; Cha = N[C@@H](CC1CCCCC1)C(=O)O; Cit = NC(=O)NCCC[C@H](N)C(=O)O; Carboxymethyl = O=C(O)C*; Orn = NCCC[C@H](N)C(=O)O; Aun = NCCCCCCCCCCC(=O)O; Dab = NCC[C@H](N)C(=O)O; Dap = NC[C@H](N)C(=O)O; AEEA = NCCOCCOCC(=O)O

The target in this assay is T1, PD-1/PD-L1 interaction (PE-labeled human PD-L1-Ig binding to Jurkat cell line over-expressing human PD-1) (Homo sapiens, UniProt Q15116).
T1 construct: expressed in transfected cells; host or cells: Jurkat
T1 sequence (Q15116 25-288): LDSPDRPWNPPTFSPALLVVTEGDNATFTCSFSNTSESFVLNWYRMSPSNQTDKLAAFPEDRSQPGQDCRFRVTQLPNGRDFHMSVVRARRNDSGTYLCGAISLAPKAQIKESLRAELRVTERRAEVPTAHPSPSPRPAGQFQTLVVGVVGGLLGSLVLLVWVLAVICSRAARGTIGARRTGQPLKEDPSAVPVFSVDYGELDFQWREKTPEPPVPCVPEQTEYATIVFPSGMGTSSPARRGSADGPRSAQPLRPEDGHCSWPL
Nature of the assay: Jurkat-PD-1 Cell Binding High-Content Screening Assay (CBA). Particulars: Jurkat cell line over-expressing human PD-1; PE-labeled PD-L1-Ig 20 nM final; read-out: Jurkat hPD1-PDL1 IC50. The class given is cell-based. An outline of the steps: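 Jurkat-hPD-1 cells, DMEM/10% FCS; cpd 2 h 37° C; PE-PD-L1-Ig 20 nM final, 1 h; 4% PFA fix + Hoechst 33342, 3× dPBS wash; high-content imaging read-out.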
As for `Cc1cccc(C[C@@H]2NC(=O)[C@H](CC(=O)O)NC(=O)[C@H](Cc3ccc(OCC(=O)O)cc3)NC(=O)[C@H](CN)NC(=O)CSC[C@@H](C(=O)NC[C@@H](N)C(=O)NCCCCCCCCCCC(=O)O)NC(=O)[C@H]([C@@H](C)O)NC(=O)[C@H](C(C)C)NC(=O)[C@H](CC3CCCCC3)NC(=O)[C@H](CCN)NC(=O)[C@@H](CC(C)C)NC(=O)[C@H](CCCN)NC(=O)[C@H](CCCNC(N)=O)NC(=O)[C@H](Cc3ccc(-c4ccccc4)cc3)NC(=O)[C@H](C(C)C)NC2=O)c1` [Compound 2622] ({CH2CO}-[Dap]Y(Carboxymethyl)D[Phe(3-Me)]V[Bip][Cit][Orn][dL][Dab][Cha]VTC-X14; thioether N-14), the IC50 (in general, the point on the concentration scale where inhibition reaches its midpoint) came out at 30.6 nM.
The same measure for `Cc1cccc(C[C@@H]2NC(=O)[C@H](CC(=O)O)NC(=O)[C@H](Cc3ccc(OCC(=O)O)cc3)NC(=O)[C@H](CN)NC(=O)CSC[C@@H](C(=O)NCC3CCC(C(=O)NCCCCCCCCCCC(=O)O)CC3)NC(=O)[C@H]([C@@H](C)O)NC(=O)[C@H](C(C)C)NC(=O)[C@H](CC3CCCCC3)NC(=O)[C@H](CCN)NC(=O)[C@@H](CC(C)C)NC(=O)[C@H](CCCN)NC(=O)[C@H](CCCNC(N)=O)NC(=O)[C@H](Cc3ccc(-c4ccccc4)cc3)NC(=O)[C@H](C(C)C)NC2=O)c1` (stereo partly drawn) [Compound 2623] ({CH2CO}-[Dap]Y(Carboxymethyl)D[Phe(3-Me)]V[Bip][Cit][Orn][dL][Dab][Cha]VTC[X16][Aun]-OH; thioether N-14): 27.5 nM; for `Cc1cccc(C[C@@H]2NC(=O)[C@H](CC(=O)O)NC(=O)[C@H](Cc3ccc(OCC(=O)O)cc3)NC(=O)[C@H](CN)NC(=O)CSC[C@@H](C(=O)NCc3ccc(CC(=O)NCCCCCCCCCCC(=O)O)cc3)NC(=O)[C@H]([C@@H](C)O)NC(=O)[C@H](C(C)C)NC(=O)[C@H](CC3CCCCC3)NC(=O)[C@H](CCN)NC(=O)[C@@H](CC(C)C)NC(=O)[C@H](CCCN)NC(=O)[C@H](CCCNC(N)=O)NC(=O)[C@H](Cc3ccc(-c4ccccc4)cc3)NC(=O)[C@H](C(C)C)NC2=O)c1` [Compound 2624] ({CH2CO}-[Dap]Y(Carboxymethyl)D[Phe(3-Me)]V[Bip][Cit][Orn][dL][Dab][Cha]VTC[X6][Aun]-OH; thioether N-14): 34.5 nM.
The result for `CC(C)C[C@H]1NC(=O)[C@H](CCCN)NC(=O)[C@H](CCCNC(N)=O)NC(=O)[C@H](Cc2ccc(-c3ccccc3)cc2)NC(=O)[C@H](C(C)C)NC(=O)[C@H](Cc2c[nH]c3ccccc23)NC(=O)[C@H](CC(=O)O)NC(=O)[C@H](Cc2ccc(OCC(=O)O)cc2)NC(=O)[C@H](CN)NC(=O)CSC[C@@H](C(=O)NCCOCCOCC(=O)N[C@@H](CCN)C(=O)NCCCCCCCCCCC(=O)O)NC(=O)[C@H](CCCCN)NC(=O)[C@H](C(C)C)NC(=O)[C@H](CC2CCCCC2)NC(=O)[C@H](CCN)NC1=O` [Compound 2625] ({CH2CO}-[Dap]Y(Carboxymethyl)DWV[Bip][Cit][Orn][dL][Dab][Cha]VKC[AEEA][Dab][Aun]-OH; thioether N-14) reads 16.7 nM; that for `CC[C@H](C)[C@@H]1NC(=O)[C@H](Cc2ccc(-c3ccccc3)cc2)NC(=O)[C@H](C(C)C)NC(=O)[C@H](Cc2c[nH]c3ccccc23)NC(=O)[C@H](CC(=O)O)NC(=O)[C@H](Cc2ccc(OCC(=O)O)cc2)NC(=O)[C@H](CN)NC(=O)CSC[C@@H](C(=O)NCCOCCOCC(=O)N[C@@H](CCN)C(=O)NCCCCCCCCCCC(=O)O)NC(=O)[C@H](CCCCN)NC(=O)[C@H](C(C)C)NC(=O)[C@H](CC2CCCCC2)NC(=O)[C@H](CCN)NC(=O)[C@@H](CC(C)C)NC(=O)[C@H](CCCN)NC1=O` [Compound 2626] ({CH2CO}-[Dap]Y(Carboxymethyl)DWV[Bip]I[Orn][dL][Dab][Cha]VKC[AEEA][Dab][Aun]-OH; thioether N-14), 11.9 nM.
As for `Cc1cccc(C[C@@H]2NC(=O)[C@H](CC(=O)O)NC(=O)[C@H](Cc3ccc(OCC(=O)O)cc3)NC(=O)[C@H](CN)NC(=O)CSC[C@@H](C(=O)NCCOCCOCC(=O)N[C@@H](CCN)C(=O)NCCCCCCCCCCC(=O)O)NC(=O)[C@H](CN)NC(=O)[C@H](C(C)C)NC(=O)[C@H](CC3CCCCC3)NC(=O)[C@H](CCN)NC(=O)[C@@H](CC(C)C)NC(=O)[C@H](CCCN)NC(=O)[C@H](CCCNC(N)=O)NC(=O)[C@H](Cc3ccc(-c4ccccc4)cc3)NC(=O)[C@H](C(C)C)NC2=O)c1` [Compound 2627] ({CH2CO}-[Dap]Y(Carboxymethyl)D[Phe(3-Me)]V[Bip][Cit][Orn][dL][Dab][Cha]V[Dap]C[AEEA][Dab][Aun]-OH; thioether N-14), the IC50 came to 14.1 nM.
Take `CC[C@H](C)[C@@H]1NC(=O)[C@H](Cc2ccc(-c3ccccc3)cc2)NC(=O)[C@H](C(C)C)NC(=O)[C@H](Cc2cccc(C)c2)NC(=O)[C@H](CC(=O)O)NC(=O)[C@H](Cc2ccc(OCC(=O)O)cc2)NC(=O)[C@H](CN)NC(=O)CSC[C@@H](C(=O)NCCOCCOCC(=O)N[C@@H](CCN)C(=O)NCCCCCCCCCCC(=O)O)NC(=O)[C@H](CN)NC(=O)[C@H](C(C)C)NC(=O)[C@H](CC2CCCCC2)NC(=O)[C@H](CCN)NC(=O)[C@@H](CC(C)C)NC(=O)[C@H](CCCN)NC1=O` [Compound 2628] ({CH2CO}-[Dap]Y(Carboxymethyl)D[Phe(3-Me)]V[Bip]I[Orn][dL][Dab][Cha]V[Dap]C[AEEA][Dab][Aun]-OH; thioether N-14): the IC50 is 15.1 nM.
The result for `Cc1cccc(C[C@@H]2NC(=O)[C@H](CC(=O)O)NC(=O)[C@H](Cc3ccc(OCC(=O)O)cc3)NC(=O)[C@H](CN)NC(=O)CSC[C@@H](C(=O)NCCOCCOCC(=O)N[C@@H](CCN)C(=O)NCCCCCCCCCCC(=O)O)NC(=O)[C@H](CCCN)NC(=O)[C@H](C(C)C)NC(=O)[C@H](CC3CCCCC3)NC(=O)[C@H](CCN)NC(=O)[C@@H](CC(C)C)NC(=O)[C@H](CCCN)NC(=O)[C@H](CCCNC(N)=O)NC(=O)[C@H](Cc3ccc(-c4ccccc4)cc3)NC(=O)[C@H](C(C)C)NC2=O)c1` [Compound 2629] ({CH2CO}-[Dap]Y(Carboxymethyl)D[Phe(3-Me)]V[Bip][Cit][Orn][dL][Dab][Cha]V[Orn]C[AEEA][Dab][Aun]-OH; thioether N-14) reads 8.6 nM; that for `CC[C@H](C)[C@@H]1NC(=O)[C@H](Cc2ccc(-c3ccccc3)cc2)NC(=O)[C@H](C(C)C)NC(=O)[C@H](Cc2cccc(C)c2)NC(=O)[C@H](CC(=O)O)NC(=O)[C@H](Cc2ccc(OCC(=O)O)cc2)NC(=O)[C@H](CN)NC(=O)CSC[C@@H](C(=O)NCCOCCOCC(=O)N[C@@H](CCN)C(=O)NCCCCCCCCCCC(=O)O)NC(=O)[C@H](CCCN)NC(=O)[C@H](C(C)C)NC(=O)[C@H](CC2CCCCC2)NC(=O)[C@H](CCN)NC(=O)[C@@H](CC(C)C)NC(=O)[C@H](CCCN)NC1=O` [Compound 2630] ({CH2CO}-[Dap]Y(Carboxymethyl)D[Phe(3-Me)]V[Bip]I[Orn][dL][Dab][Cha]V[Orn]C[AEEA][Dab][Aun]-OH; thioether N-14), 9.9 nM.
Turning to `CC(C)C[C@H]1NC(=O)[C@H](CCCN)NC(=O)[C@H](CCCCC(N)=O)NC(=O)[C@H](Cc2ccc(-c3ccccc3)cc2)NC(=O)[C@H](C(C)C)NC(=O)[C@H](Cc2c[nH]c3ccccc23)NC(=O)[C@H](CC(=O)O)NC(=O)[C@H](Cc2ccc(OCC(=O)O)cc2)NC(=O)[C@H](CN)NC(=O)CSC[C@@H](C(=O)N[C@@H](CCN)C(=O)NCCOCCOCC(=O)NCCCCCCCCCCC(=O)O)NC(=O)[C@H](CCCCN)NC(=O)[C@H](C(C)C)NC(=O)[C@H](CC2CCCCC2)NC(=O)[C@H](CCN)NC1=O` [Compound 2631] ({CH2CO}-[Dap]Y(Carboxymethyl)DWV[Bip][hhGln][Orn][dL][Dab][Cha]VKC[Dab][AEEA][Aun]-OH; thioether N-14), the half-inhibitory concentration (IC50) worked out at 14.1 nM.
The result for `CC[C@H](C)[C@@H]1NC(=O)[C@H](Cc2ccc(-c3ccccc3)cc2)NC(=O)[C@H](C(C)C)NC(=O)[C@H](Cc2c[nH]c3ccccc23)NC(=O)[C@H](CC(=O)O)NC(=O)[C@H](Cc2ccc(OCC(=O)O)cc2)NC(=O)[C@H](CN)NC(=O)CSC[C@@H](C(=O)N[C@@H](CCN)C(=O)NCCOCCOCC(=O)NCCCCCCCCCCC(=O)O)NC(=O)[C@H](CCCCN)NC(=O)[C@H](C(C)C)NC(=O)[C@H](CC2CCCCC2)NC(=O)[C@H](CCN)NC(=O)[C@@H](CC(C)C)NC(=O)[C@H](CCCN)NC1=O` [Compound 2632] ({CH2CO}-[Dap]Y(Carboxymethyl)DWV[Bip]I[Orn][dL][Dab][Cha]VKC[Dab][AEEA][Aun]-OH; thioether N-14) reads 12.4 nM.
Regarding `Cc1cccc(C[C@@H]2NC(=O)[C@H](CC(=O)O)NC(=O)[C@H](Cc3ccc(OCC(=O)O)cc3)NC(=O)[C@H](CN)NC(=O)CSC[C@@H](C(=O)N[C@@H](CCN)C(=O)NCCOCCOCC(=O)NCCCCCCCCCCC(=O)O)NC(=O)[C@H](CN)NC(=O)[C@H](C(C)C)NC(=O)[C@H](CC3CCCCC3)NC(=O)[C@H](CCN)NC(=O)[C@@H](CC(C)C)NC(=O)[C@H](CCCN)NC(=O)[C@H](CCCNC(N)=O)NC(=O)[C@H](Cc3ccc(-c4ccccc4)cc3)NC(=O)[C@H](C(C)C)NC2=O)c1` [Compound 2633] ({CH2CO}-[Dap]Y(Carboxymethyl)D[Phe(3-Me)]V[Bip][Cit][Orn][dL][Dab][Cha]V[Dap]C[Dab][AEEA][Aun]-OH; thioether N-14), the IC50 worked out at 16.4 nM.
The result for `CC[C@H](C)[C@@H]1NC(=O)[C@H](Cc2ccc(-c3ccccc3)cc2)NC(=O)[C@H](C(C)C)NC(=O)[C@H](Cc2cccc(C)c2)NC(=O)[C@H](CC(=O)O)NC(=O)[C@H](Cc2ccc(OCC(=O)O)cc2)NC(=O)[C@H](CN)NC(=O)CSC[C@@H](C(=O)N[C@@H](CCN)C(=O)NCCOCCOCC(=O)NCCCCCCCCCCC(=O)O)NC(=O)[C@H](CN)NC(=O)[C@H](C(C)C)NC(=O)[C@H](CC2CCCCC2)NC(=O)[C@H](CCN)NC(=O)[C@@H](CC(C)C)NC(=O)[C@H](CCCN)NC1=O` [Compound 2634] ({CH2CO}-[Dap]Y(Carboxymethyl)D[Phe(3-Me)]V[Bip]I[Orn][dL][Dab][Cha]V[Dap]C[Dab][AEEA][Aun]-OH; thioether N-14) reads 14.1 nM.
